{"source": "patent US11298364B2", "about": "“Methods and products for preventing and/or treating microorganism infections comprising iron chelators and non-iron porphyrins” (The University of Adelaide, priority 2015, dated 2022)", "key": {"[1]": {"assay": "Drug release from hydrogel into phosphate buffered saline", "type": "physicochemical", "description": "Drug release: Five millilitre of gel was prepared in a Falcon tube and allowed to solidify, after which 10 ml release medium (phosphate buffered saline, Sigma Aldrich) was added. The tube was incubated at 37° C. on a rotating platform for 20 days. […] The concentration of […] quantified by UV-Vis spectroscopy (Evolution 201 UV-Vis Spectrophotometer, Thermo Fisher Scientific, Scoresby, VIC, Australia) at 280 nm and 405 nm, respectively, by interpolating from a standard curve."}, "[2]": {"tested_on": "L929 cells (mouse fibroblast cell line)", "assay": "LDH cell viability test", "type": "cell-based", "settings": "2 h", "description": "(§1) L929 cells (mouse fibroblast cell line) and Nuli-1 cells (human airway epithelial cell line) were obtained from ATCC (American Type Culture Collection, Manassas, Va., USA). The Nuli-1 cell line was cultured in Bronchial Epithelial Cell Growth Medium (Lonza, Australia) and L929 cells were grown in Dulbecco's Modified Eagle Medium (Sigma-Aldrich, Germany). Cells were maintained in a fully humidified incubator with 5% CO2 at 37° C.\n(§2) The lactate dehydrogenase (LDH) bioassay (Roche Diagnostics Corporation, Indianapolis, Ind., USA) was performed to assess the cytotoxic effects of Def and GaPP. Briefly, cells were seeded at 1×10^4 into each well in 100 μl in quadruplicate wells of 96-well flat-bottom plates and incubated for 24 hours (37° C., 5% CO2) to allow attachment of cells. To assess the toxicity of the dual treatment, firstly, 100 μl of Def (20 mM) was added to each well. After 2 hours incubation, cells were washed three times with PBS and were exposed to different concentrations of GaPP (100, 200, 300, 400 and 500 μg/ml) for another 2 hours. In addition, cells were separately treated with either Def or GaPP for 2 hours. The OD was measured at 490 nm."}, "[3]": {"tested_on": "Nuli-1 cells (human airway epithelial cell line)", "assay": "LDH cell viability test", "type": "cell-based", "settings": "2 h", "description": "as §1, §2"}, "[4]": {"tested_on": "S. aureus ATCC 25923 biofilms", "assay": "S. aureus biofilm killing, 96-well biofilm, AlamarBlue viability assay", "type": "cell-based, Staphylococcus aureus", "settings": "2 h", "description": "Single colonies of S. aureus ATCC 25923 (American Type Culture Collection, Manassas, Va., USA) were immersed in 0.45% saline (Sigma Aldrich, Germany), adjusted to 1.0±0.1 McFarland units (3×10^8 colony forming units/ml), and diluted 1:15 in nutrient broth (Oxoid Ltd., England). The bacteria-broth mixture was added into 96-well plates at 150 μl per well (Costar®, Corning Incorporated, NY, USA). Incubation for 72 hours at 37° C. on a rotating plate set at 70 rpm (3D Gyratory Mixer, Ratek Instruments, Australia) assured extensive S. aureus biofilm growth.\nBiofilms were washed twice with phosphate buffered saline (PBS, Sigma Aldrich, Germany) to remove planktonic cells, before treating the biofilms with various concentrations of i) Deferiprone (“Def”; 3-hydroxy-1,2-dimethylpyridin-4(1H)-one, Sigma Aldrich, Germany), ii) Gallium-Protoporphyrin (“GAPP”; Frontier Scientific, UT, USA), iii) a concurrent combination of both compounds and iv) a consecutive combination of both compounds. To prepare the treatments, Def was dissolved in water and GaPP was dissolved in an aqueous 0.03% solution of Tween® 80 (polyoxyethylene sorbitan […], Sigma Aldrich, Germany), i.e. above the critical micelle concentration (CMC) of Tween® 80 ([…]). Controls included bacterial wells without treatment (i.e. 100% bacterial growth, negative control), blank wells without bacteria (i.e. 0% growth, positive control) and bacterial wells with Tween® 80 treatment (as a control for GaPP dilutions). After 2 hours incubation of each treatment at 37° C. on a rotating plate, a second washing step with PBS followed to remove the treatments.\nBacterial viability was assessed using the AlamarBlue cell viability assay as described in Peeters, E. et al. (2008) Journal of Microbiological Methods, 72(2): p. 157-165. A 10% AlamarBlue dilution (Resazurin, Life Technologies, Australia) in nutrient broth was prepared and added to each well. Plates were incubated in the dark at 37° C. on a rotating plate. Fluorescence of Resorufin was measured hourly on a FLUOstar OPTIMA plate reader (BMG LABTECH, Germany). The method was set at bottom reading and fluorescence was measured at λexcitation 530 nm/λemission 590 nm. Maximum intensities were typically reached after 6 hours incubation and used for quantification according to Equation 1:\nBacterial viability was determined as the percentage of biofilm killing (% BK), where IC represents the fluorescence intensity of the controls (i.e. 100% bacterial growth) and IT indicates the maximum intensity of the treatments. Both IC and IT were corrected by the intensity of background (i.e. 0% bacterial growth)."}, "[5]": {"tested_on": "planktonic clinical MRSA isolate MRSA c", "assay": "MIC of gel-released drugs, broth dilution (Example 6)", "type": "cell-based, Staphylococcus aureus", "settings": "MRSA c (resistant to 5 antibiotics)", "description": "(§3) Bacterial strains: S. aureus ATCC 25923 was purchased from American Type Culture Collection (Manassas, Va., USA). Clinical MRSA isolate strains were obtained from Adelaide Pathology Partners (Mile End, SA, Australia).\n(§4) The MIC was evaluated as the lowest drug concentration preventing bacterial growth."}, "[6]": {"tested_on": "planktonic clinical MRSA isolate MRSA a", "assay": "MIC of gel-released drugs, broth dilution (Example 6)", "type": "cell-based, Staphylococcus aureus", "settings": "MRSA a (resistant to 4 antibiotics)", "description": "as §3, §4"}, "[7]": {"tested_on": "planktonic clinical MRSA isolate MRSA d", "assay": "MIC of gel-released drugs, broth dilution (Example 6)", "type": "cell-based, Staphylococcus aureus", "settings": "MRSA d (resistant to 7 antibiotics)", "description": "as §3, §4"}, "[8]": {"tested_on": "planktonic clinical MRSA isolate MRSA b", "assay": "MIC of gel-released drugs, broth dilution (Example 6)", "type": "cell-based, Staphylococcus aureus", "settings": "MRSA b (resistant to 4 antibiotics)", "description": "as §3, §4"}, "[9]": {"tested_on": "planktonic clinical MRSA isolate MRSA e", "assay": "MIC of gel-released drugs, broth dilution (Example 6)", "type": "cell-based, Staphylococcus aureus", "settings": "MRSA e (resistant to 9 antibiotics)", "description": "as §3, §4"}, "[10]": {"tested_on": "planktonic S. aureus ATCC 25923", "assay": "MIC of gel-released drugs, broth dilution (Example 6)", "type": "cell-based, Staphylococcus aureus", "settings": "S. aureus 25923", "description": "as §3, §4"}, "[11]": {"tested_on": "S. aureus", "assay": "Plate assay for anti-bacterial properties (agar holes filled with vehicle)", "type": "cell-based", "settings": "in vehicle: 20 mM Def and/or 200 μg/ml GaPP, 24 hours", "description": "To investigate the anti-bacterial properties of Def and GaPP individually, or with Def and GaPP in combination, a plate assay was used. Briefly, liquid nutrient agar was mixed with an aliquot of a S. aureus or Pseudomonas aeruginosa overnight culture and poured into Petri dishes. After the agar was solidified, holes (0.9 cm diameter) were punched into the agar and aspirated. Subsequently, the holes were filled with 200 μl of a vehicle with and without Def/GaPP. Following incubation at 37° C. for 24 hours, the inhibition diameter was assessed as a measure of efficacy against S. aureus or Pseudomonas aeruginosa bacteria."}, "[12]": {"tested_on": "planktonic S. aureus ATCC 25923", "assay": "Minimal inhibitory concentration, broth microdilution (Example 1)", "type": "cell-based, Staphylococcus aureus", "settings": "20 hours, 37° C.", "description": "MIC values were assessed for the individual compounds Def and GaPP against planktonic S. aureus using standard methods, specifically colony suspension method and broth microdilution as described in Wiegand, I. et al. (2008) Nat Protoc, 3(2): p. 163-75. Briefly, single colonies of S. aureus ATCC 25923 were suspended in 0.45% saline and adjusted to 0.5 McFarland units. The bacterial suspension was 1:100 diluted with nutrient broth and plated into 96-well plates. Various treatment dilutions of Def and GaPP were added, followed by incubation of the plate at 37° C. for 20 hours. The MIC was determined as the lowest drug concentration preventing turbidity."}, "[13]": {"settings": "Staphylococcus aureus, read-out: minimal inhibitory concentration"}}}
{"smiles": "Cc1c(O)c(=O)ccn1C", "note": "[Def, 3-hydroxy-1,2-dimethylpyridin-4(1H)-one, reference compound]", "values": [{"measurement": "time to complete release from hydrogel", "setting": "[1]; 37° C., PBS", "value": "48 to 72", "unit": "h"}, {"measurement": "release of Def (percentage of the original concentration in the gel)", "setting": "[1]; after approximately 48-72 hours, 37° C., PBS", "value": 100, "unit": "%"}, {"measurement": "cell viability (LDH assay) vs negative control", "setting": "[2]; Def 20 mM", "value": "no statistically significant difference"}, {"measurement": "cell viability (LDH assay) vs negative control", "setting": "[3]; Def 20 mM", "value": "no statistically significant difference"}, {"measurement": "Biofilm killing (%) by single treatment Def", "setting": "[4]; Def 0.5 mM", "value": 6.09, "unit": "%"}, {"measurement": "Biofilm killing (%) by single treatment Def", "setting": "[4]; Def 1.5 mM", "value": 7.65, "unit": "%"}, {"measurement": "Biofilm killing (%) by single treatment Def", "setting": "[4]; Def 5 mM", "value": 12.07, "unit": "%"}, {"measurement": "Biofilm killing (%) by single treatment Def", "setting": "[4]; Def 10 mM", "value": 22.88, "unit": "%"}, {"measurement": "Biofilm killing (%) by single treatment Def", "setting": "[4]; Def 20 mM", "value": 34.00, "unit": "%"}, {"measurement": "biofilm reduction plateau", "setting": "[4]; Def at concentrations above 20 mM", "value": "approximately 34%"}, {"measurement": "MIC", "setting": "[5]; [13]", "value": 56, "unit": "µg/mL"}, {"measurement": "MIC", "setting": "[6]; [13]", "value": 56, "unit": "µg/mL"}, {"measurement": "MIC", "setting": "[7]; [13]", "value": 56, "unit": "µg/mL"}, {"measurement": "MIC", "setting": "[8]; [13]", "value": 56, "unit": "µg/mL"}, {"measurement": "MIC", "setting": "[9]; [13]", "value": 56, "unit": "µg/mL"}, {"measurement": "MIC", "setting": "[10]; Staphylococcus aureus, ATCC25923, read-out: minimal inhibitory concentration", "value": 28, "unit": "µg/mL"}, {"measurement": "anti-bacterial activity (inhibition on plate)", "setting": "[11]", "value": "relatively little anti-bacterial activity"}, {"measurement": "MIC", "setting": "[12]; Staphylococcus aureus, ATCC25923, read-out: MIC", "value": 2500, "unit": "µM"}]}
{"smiles": "C=CC1=C(C)C2=[N+]3C1=Cc1c(C)c(C=C)c4[n]1[Ga-]31[n]3c(c(C)c(CCC(=O)O)c3=CC3=[N+]1C(=C4)C(C)=C3CCC(=O)O)=C2", "note": "(stereo not shown) [GaPP, gallium-protoporphyrin IX]", "values": [{"measurement": "release of GaPP (percentage of the original concentration in the gel)", "setting": "[1]; after 460 hours, 37° C., PBS", "value": "20-25%"}, {"measurement": "incorporated GaPP released from the hydrogel", "setting": "[1]; after 20 days", "value": "approximately 25%"}, {"measurement": "cell viability (LDH assay) vs negative control", "setting": "[2]; GaPP 500 μg/ml", "value": "induced cell toxicity"}, {"measurement": "cell viability (LDH assay) vs negative control", "setting": "[2]; GaPP 100-400 μg/ml", "value": "no significant effect"}, {"measurement": "cell viability (LDH assay) vs negative control", "setting": "[3]; GaPP 500 μg/ml", "value": "induced cell toxicity"}, {"measurement": "cell viability (LDH assay) vs negative control", "setting": "[3]; GaPP 100-400 μg/ml", "value": "no significant effect"}, {"measurement": "Biofilm killing (%) by single treatment GaPP", "setting": "[4]; GaPP 1 μg/ml", "value": 9.04, "unit": "%"}, {"measurement": "Biofilm killing (%) by single treatment GaPP", "setting": "[4]; GaPP 5 μg/ml", "value": 32.18, "unit": "%"}, {"measurement": "Biofilm killing (%) by single treatment GaPP", "setting": "[4]; GaPP 10 μg/ml", "value": 41.99, "unit": "%"}, {"measurement": "Biofilm killing (%) by single treatment GaPP", "setting": "[4]; GaPP 50 μg/ml", "value": 52.90, "unit": "%"}, {"measurement": "Biofilm killing (%) by single treatment GaPP", "setting": "[4]; GaPP 100 μg/ml", "value": 69.86, "unit": "%"}, {"measurement": "minimal inhibitory concentration", "setting": "[5]", "value": 1.48, "unit": "µg/mL"}, {"measurement": "minimal inhibitory concentration", "setting": "[6]", "value": 1.48, "unit": "µg/mL"}, {"measurement": "minimal inhibitory concentration", "setting": "[7]", "value": 1.48, "unit": "µg/mL"}, {"measurement": "minimal inhibitory concentration", "setting": "[8]", "value": 0.74, "unit": "µg/mL"}, {"measurement": "minimal inhibitory concentration", "setting": "[9]", "value": 1.48, "unit": "µg/mL"}, {"measurement": "minimal inhibitory concentration", "setting": "[10]", "value": 0.90, "unit": "µg/mL"}, {"measurement": "anti-bacterial activity (inhibition on plate)", "setting": "[11]", "value": "significant anti-bacterial activity"}, {"measurement": "MIC", "setting": "[12]", "value": 0.4, "unit": "µg/mL"}]}
